# Assay results taken from PMC10066365, “Nemacol is a small molecule inhibitor of C. elegans vesicular acetylcholine transporter with anthelmintic potential” (Nature Communications, 2023).
# “And” between values parts separate entries of the source, which are not always exact repeats. Identical values can stand only once.
# Experiments:
# [1] = tested on: C. elegans emb-8(hc69); emb-8(RNAi); experiment: Motor phenotype time course on 60 μM Nemacol-1, EMB-8 disruption vs wild type; format: in vivo, Caenorhabditis elegans; settings: for adult worms J (jerky-unc) / adult worms NP (no phene) / adult worms C1 (loose coil) / adult worms C2 (tight coil): count per bio rep
# [2] = tested on: C. elegans; experiment: as above; format: in vivo, Caenorhabditis elegans
# [3] = tested on: C. elegans; experiment: C. elegans 3-day liquid viability assay, Nemacol-1 x Ivermectin matrix, wild type; settings: for total animals normalized to corresponding controls: N2 wild type; for nemacol-1 x ivermectin matrix dose-response raw data: ivermectin 0 (row head 0), 3 replicate columns
# [4] = N2, 60µM, 4h, average of 3 biological repeats
# [5] = N2, 60µM, 6h, average of 3 biological repeats
# [6] = N2, 60µM, 24h, average of 3 biological repeats
# [7] = emb-8, 60µM, 1h, average of 3 biological repeats
# [8] = emb-8, 60µM, 4h, average of 3 biological repeats
# [9] = emb-8, 60µM, 6h, average of 3 biological repeats
# [10] = emb-8, 60µM, 24h, average of 3 biological repeats
# [11] = Caenorhabditis elegans, read-out: C. elegans viability
structure (smiles),measurement,setting,value
O=[N+]([O-])c1ccc(N2CCN(CC3CCCCC3)CC2)cc1 [Nemacol-1],Fraction Coiled,"[1]; N2, 60µM, 1h, per bio rep",0.5000 and 0.5556
same,Fraction Coiled,[1]; [4],0.1111
same,Fraction Jerky-Unc,[1]; [4],0.2963
same,Fraction Parayzed,[1]; [4],0.0185
same,adult worms J (jerky-unc),"[1]; N2, 60µM, 4h",7 and 5 and 4
same,adult worms NP (no phene),"[1]; N2, 60µM, 4h",7 and 14 and 10
same,Fraction Jerky-Unc,"[1]; N2, 60µM, 4h, per bio rep",0.2222 and 0.3889 and 0.2778
same,Fraction Coiled,[1]; [5],0.0556
same,Fraction Jerky-Unc,[1]; [5],0.2037
same,Fraction Parayzed,[1]; [5],0.0000
same,adult worms J (jerky-unc),"[1]; N2, 60µM, 6h",3 and 5
same,adult worms NP (no phene),"[1]; N2, 60µM, 6h",15 and 10
same,Fraction Jerky-Unc,"[1]; N2, 60µM, 6h, per bio rep",0.1667 and 0.2778
same,Fraction Parayzed,"[1]; N2, 60µM, 6h, per bio rep",0.0000
same,Fraction Coiled,[1]; [6],0.0000
same,Fraction Jerky-Unc,[1]; [6],0.0000
same,Fraction Parayzed,[1]; [6],0.0000
same,adult worms C1 (loose coil),"[1]; N2, 60µM, 24h",0
same,adult worms C2 (tight coil),"[1]; N2, 60µM, 24h",0
same,adult worms J (jerky-unc),"[1]; N2, 60µM, 24h",0
same,adult worms NP (no phene),"[1]; N2, 60µM, 24h",18
same,Fraction Coiled,"[1]; N2, 60µM, 24h, per bio rep",0.0000
same,Fraction Jerky-Unc,"[1]; N2, 60µM, 24h, per bio rep",0.0000
same,Fraction Parayzed,"[1]; N2, 60µM, 24h, per bio rep",0.0000
same,Fraction Coiled,[1]; [7],0.5000
same,Fraction Jerky-Unc,[1]; [7],0.2778
same,Fraction Parayzed,[1]; [7],0.2222
same,adult worms C1 (loose coil),"[1]; emb-8, 60µM, 1h",3 and 4
same,adult worms C2 (tight coil),"[1]; emb-8, 60µM, 1h",6 and 4
same,adult worms J (jerky-unc),"[1]; emb-8, 60µM, 1h",5 and 4 and 6
same,adult worms NP (no phene),"[1]; emb-8, 60µM, 1h",0
same,Fraction Coiled,"[1]; emb-8, 60µM, 1h, per bio rep",0.5556 and 0.5000 and 0.4444
same,Fraction Jerky-Unc,"[1]; emb-8, 60µM, 1h, per bio rep",0.3333 and 0.2778 and 0.2222
same,Fraction Coiled,[1]; [8],0.1481
same,Fraction Jerky-Unc,[1]; [8],0.3889
same,Fraction Parayzed,[1]; [8],0.4630
same,adult worms NP (no phene),"[1]; emb-8, 60µM, 4h",0
same,Fraction Coiled,[1]; [9],0.3704
same,Fraction Jerky-Unc,[1]; [9],0.2778
same,Fraction Parayzed,[1]; [9],0.3519
same,adult worms C2 (tight coil),"[1]; emb-8, 60µM, 6h",4 and 3
same,adult worms NP (no phene),"[1]; emb-8, 60µM, 6h",0
same,Fraction Coiled,[1]; [10],0.2963
same,Fraction Jerky-Unc,[1]; [10],0.2222
same,Fraction Parayzed,[1]; [10],0.4815
same,adult worms NP (no phene),"[1]; emb-8, 60µM, 24h",0
same,Fraction Coiled,"[1]; emb-8, 60µM, 24h, per bio rep",0.3333 and 0.2222
same,Fraction No Phenotype,"[2]; N2, 60µM, 1h, average of 3 biological repeats",0.0000
same,Fraction No Phenotype,"[2]; N2, 60µM, 1h, per bio rep",0.0000
same,Fraction No Phenotype,[2]; [4],0.5741
same,Fraction No Phenotype,"[2]; N2, 60µM, 4h, per bio rep",0.3889 and 0.5556 and 0.7778
same,Fraction No Phenotype,[2]; [5],0.7407
same,Fraction No Phenotype,"[2]; N2, 60µM, 6h, per bio rep",0.8333 and 0.5556
same,Fraction No Phenotype,[2]; [6],1.0000
same,Fraction No Phenotype,"[2]; N2, 60µM, 24h, per bio rep",1.0000
same,Fraction No Phenotype,[2]; [7],0.0000
same,Fraction No Phenotype,"[2]; emb-8, 60µM, 1h, per bio rep",0.0000
same,Fraction No Phenotype,[2]; [8],0.0000
same,Fraction No Phenotype,"[2]; emb-8, 60µM, 4h, per bio rep",0.0000
same,Fraction No Phenotype,[2]; [9],0.0000
same,Fraction No Phenotype,"[2]; emb-8, 60µM, 6h, per bio rep",0.0000
same,Fraction No Phenotype,[2]; [10],0.0000
same,Fraction No Phenotype,"[2]; emb-8, 60µM, 24h, per bio rep",0.0000
same,fold lowering of Ivermectin's EC50,"[3]; 3-day viability, wild type",3 fold
same,viability at 15 µM,[3]; [11],97%
same,viability at 30 µM,[3]; [11],97%
same,viability at 60 µM,[3]; [11],83%
same,global ZIP synergy score,"[3]; Ivermectin + Nemacol-1, wild type, threshold of synergy 10",20.0
same,total animals normalized to corresponding controls,"[3]; nemacol-1 0.9375, ivermectin 0 uM",1.1
same,total animals normalized to corresponding controls,"[3]; nemacol-1 1.875, ivermectin 0 uM",1.1
same,total animals normalized to corresponding controls,"[3]; nemacol-1 3.75, ivermectin 0 uM",1.2
same,total animals normalized to corresponding controls,"[3]; nemacol-1 7.5, ivermectin 0 uM",1.1
same,total animals normalized to corresponding controls,"[3]; nemacol-1 15, ivermectin 0 uM",0.9
same,total animals normalized to corresponding controls,"[3]; nemacol-1 30, ivermectin 0 uM",0.9
same,nemacol-1 x ivermectin matrix dose-response raw data,[3]; wt (N2) + 15 uM nemacol,100.0 and 76.7 and 84.0
same,nemacol-1 x ivermectin matrix dose-response raw data,[3]; wt (N2) + 30 uM nemacol,102.1 and 93.3 and 70.0
same,nemacol-1 x ivermectin matrix dose-response raw data,[3]; wt (N2) + 60 uM nemacol,119.1 and 66.7 and 70.0
same,nemacol-1 x ivermectin matrix dose-response raw data,[3]; wt (N2) + 3.75 nemacol,102.1 and 150.0 and 114.0
